The values below come from patent US20230391752A1, “PYRROLIDINE-3-CARBOXAMIDE DERIVATIVES AND RELATED USES” (Chulalongkorn University, priority 2020, published 2023).

Series [1] relates to HBV. In words: In vitro anti-HBV activity in HepG2.2.15 cell line (intracellular HBV DNA by qPCR at 1 μM). The format is cell-based. To be noted: Hepatitis B virus, 144 h; HepG2.2.15 cells, 1 μM compound, 6 days, intracellular HBV DNA as percentage compared to vehicle control (0.5% DMSO). The procedure, abridged: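 HepG2.2.15 cells given compound at 1 μM (0.5% DMSO final) for 3 days, then fresh compound-containing medium for 3 more days. After 6 days intracellular HBV DNA measured by qPCR. Expressed as % of 0.5% DMSO vehicle control and binned into letter ranges.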

A short description of series [2]: Cytotoxicity (MTT) in HepG2.2.15 cells. The format is cell-based. To be noted: human, 6 days treatment, read-out: HepG2.1.15 cytotoxicity (CC50). The procedure:
HepG2.2.15 cells were seeded onto 96-well culture plate and allowed to adhere for 24 hours. The cells were treated with various concentrations of the compounds for 6 days. After treatment, the culture media were discarded and further incubated with serum-free media containing […] of 3-(4,5-dimethylthiazol-2-yl)-2,5-diphenyl tetrazolium bromide (MTT) for 2 hour. The resulting formazan crystals were completely dissolved in dimethyl sulfoxide (DMSO), and then measured absorbance at 570 nm using microplate reader. The concentrations of compounds producing 50% cell death (CC50) were determined from a fitting of concentration-response curve (% cell viability versus concentration) to a four-parameter equation.

A further series addresses T1, HBV core protein (Cp149) (Hepatitis B virus genotype D subtype ayw, UniProt P03146).
T1 construct: HBV core C-terminally truncated protein (HBV Cp149); made in house
Kind of series: HBV capsid assembly by size exclusion chromatography (SEC). To be noted: 50 μM compound, 15 μM Cp149, 16 hours at 21° C. In kind it is biochemical.

Series [3] deals with HBV. In words: Effect on intrahepatic HBV DNA levels in HepG2.2.15 cells (EC50). In kind it is cell-based. The following applies: Hepatitis B virus, 144 h, 6 days, intrahepatic HBV DNA by qPCR, read-out: Anti-HBV DNA (EC50). The method, then:
HepG2.2.15 cells were treated with compounds, at various concentrations in 10% FCS containing medium, at 37° C. for three days. After that the medium was removed and fresh medium containing the compound was added to the cells for another 3 days. After 6 days of treatment, intrahepatic HBV DNA from cell lysates were isolated. Then qPCR reaction of DNA was performed to measure total HBV DNA levels using specific primer set. The fifty-percent effective concentrations (EC50) for HBV DNA inhibition, relative to no drug controls, was determined using nonlinear fitting curve model. EC50 ranges for HBV DNA inhibition were as follows: A>0.3 μM, B=0.05-0.3 μM, C<0.05 μM (Table B).

T1 sequence (P03146 1-149): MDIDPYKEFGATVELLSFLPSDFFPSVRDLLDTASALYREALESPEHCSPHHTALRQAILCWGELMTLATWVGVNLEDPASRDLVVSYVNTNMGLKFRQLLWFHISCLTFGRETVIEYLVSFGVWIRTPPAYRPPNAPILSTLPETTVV

The compound `Cc1cc(NC(=O)[C@H]2CCN(C(=O)c3ccc(-c4c(C)n[nH]c4C)[nH]3)[C@H]2C)ccc1F` [Example 103, (2S,3S)-1-(5-(3,5-dimethyl-1H-pyrazol-4-yl)-1H-pyrrole-2-carbonyl)-N-(4-fluoro-3-methylphenyl)-2-methylpyrrolidine-3-carboxamide] displayed an activity at 1 µM in the series with HBV [1] of less than 45%. For the same compound, the CC50 at 6 days in series [2] was in the range of 10000 to 25000 nM. Also, the “Size of induced capsids based on SEC retention times” value (shortened to “Size of induced capsids based”) at HBV core protein (Cp149) is reported as “induced capsids similar in size to NVR 3-778”. Moreover, in the series with HBV [3], the EC50 is less than 50 nM.

For the compound `Cc1cc(NC(=O)[C@H]2CCN(C(=O)c3ccc(-c4c(C)n[nH]c4C)[nH]3)C2)ccc1F` [Example 101, (S)-1-(5-(3,5-dimethyl-1H-pyrazol-4-yl)-1H-pyrrole-2-carbonyl)-N-(4-fluoro-3-methylphenyl)pyrrolidine-3-carboxamide], the activity at 1 µM with HBV [1] is less than 45%. Besides, the CC50 at 6 days in series [2] was greater than 25000 nM. The “Size of induced capsids based” value on HBV core protein (Cp149) is recorded as “induced capsids similar in size to NVR 3-778”. Also, the EC50 with HBV [3] fell in the range of 50 to 300 nM.

Take `Cc1cc(NC(=O)[C@H]2CCN(C(=O)c3ccc(-c4ccnnc4)[nH]3)[C@H]2C)ccc1F` [Example 102, (2S,3S)—N-(4-fluoro-3-methylphenyl)-2-methyl-1-(5-(pyridazin-4-yl)-1H-pyrrole-2-carbonyl) pyrrolidine-3-carboxamide]: the activity at 1 µM in the series with HBV [1] is less than 45%. Further, the 50% cytotoxic concentration (CC50) at 6 days in series [2] was greater than 25000 nM. Also, the “Size of induced capsids based” value at HBV core protein (Cp149) is recorded as “induced capsids similar in size to NVR 3-778”. Also, the EC50 with HBV [3] was less than 50 nM.

On to `Cc1cc(NC(=O)[C@H]2CCN(C(=O)c3ccc(-c4c(C)cn[nH]c4=O)[nH]3)[C@H]2C)ccc1F` [Example 125, (2S,3S)—N-(4-fluoro-3-methylphenyl)-2-methyl-1-(5-(5-methyl-3-oxo-2,3-dihydropyridazin-4-yl)-1H-pyrrole-2-carbonyl)pyrrolidine-3-carboxamide], for which, in the series on HBV [1], the activity at 1 µM was less than 45%. Moreover, the CC50 at 6 days in series [2] was greater than 25000 nM. Further, on HBV core protein (Cp149), the “Size of induced capsids based” value is recorded as “induced capsids similar in size to NVR 3-778”. Besides, the 50% effective concentration (EC50) in the series with HBV [3] was less than 50 nM.

With `Cc1c(-c2ccc(C(=O)N3CC[C@H](C(=O)Nc4cc(F)c(F)c(F)c4)C3)[nH]2)ccc2[nH]ncc12` [Example 128, (S)-1-(5-(4-methyl-1H-indazol-5-yl)-1H-pyrrole-2-carbonyl)-N-(3,4,5-trifluorophenyl) pyrrolidine-3-carboxamide], in the series with HBV [1], the activity at 1 µM was less than 45%. In addition, the CC50 at 6 days in series [2] lay in the range of 10000 to 25000 nM. Besides, the “Size of induced capsids based” value on HBV core protein (Cp149) is “induced capsids similar in size to NVR 3-778”. In addition, in the series with HBV [3], the EC50 was 50 to 300 nM.

In the series with HBV [1], `Cc1ncnc(C)c1-c1ccc2c(Cl)c(C(=O)N3CC[C@H](C(=O)Nc4ccc(F)c(C#N)c4)[C@@H]3C)[nH]c2c1` [Example 138, (2S,3S)-1-(3-chloro-6-(4,6-dimethylpyrimidin-5-yl)-1H-indole-2-carbonyl)-N-(3-cyano-4-fluorophenyl)-2-methylpyrrolidine-3-carboxamide] yielded an activity at 1 µM of less than 45%. Besides, the CC50 at 6 days in series [2] was 10000 to 25000 nM. Moreover, on HBV core protein (Cp149), the “Size of induced capsids based” value was “capsid retention times between BAY 41-4109 and NVR 3-778”. The EC50 in the series with HBV [3] was in the range of 50 to 300 nM.

Take `C[C@H]1[C@@H](C(=O)Nc2ccc(F)c(F)c2)CCN1C(=O)c1ccc(-c2ccnnc2)[nH]1` [Example 110, (2S,3S)—N-(3,4-difluorophenyl)-2-methyl-1-(5-(pyridazin-4-yl)-1H-pyrrole-2-carbonyl) pyrrolidine-3-carboxamide]: in the series on HBV [1], the activity at 1 µM was less than 45%. In series [2], the CC50 at 6 days is greater than 25000 nM. In addition, at HBV core protein (Cp149), the “Size of induced capsids based” value was “induced capsids similar in size to NVR 3-778”. Also, the EC50 in the series on HBV [3] is 50 to 300 nM.

Regarding `C[C@H]1[C@@H](C(=O)Nc2cc(F)c(F)c(F)c2)CCN1C(=O)c1ccc(C#N)[nH]1` [Example 19, (2S,3S)-1-(5-cyano-1H-pyrrole-2-carbonyl)-2-methyl-N-(3,4,5-trifluorophenyl)pyrrolidine-3-carboxamide], the activity at 1 µM in the series on HBV [1] is less than 45%. Besides, the cytotoxic concentration (CC50) at 6 days in series [2] is greater than 25000 nM. Further, the “Size of induced capsids based” value on HBV core protein (Cp149) was “induced capsids similar in size to NVR 3-778”. In the series on HBV [3], the EC50 fell in the range of 50 to 300 nM.

`Cc1cnnc(C)c1-c1ccc(C(=O)N2CC[C@H](C(=O)Nc3ccc(F)c(C#N)c3)[C@@H]2C)[nH]1` [Example 116, (2S,3S)—N-(3-cyano-4-fluorophenyl)-1-(5-(3,5-dimethylpyridazin-4-yl)-1H-pyrrole-2-carbonyl)-2-methylpyrrolidine-3-carboxamide] returned an activity at 1 µM with HBV [1] of 45 to 60%. The CC50 at 6 days in series [2] is greater than 25000 nM. Besides, the EC50 in the series on HBV [3] was 50 to 300 nM.

In the series with HBV [1], `Cc1ncc(-c2ccc(C(=O)N3CC[C@H](C(=O)Nc4ccc(F)c(Cl)c4)[C@@H]3C)[nH]2)cn1` [Example 127, (2S,3S)—N-(3-chloro-4-fluorophenyl)-2-methyl-1-(5-(2-methylpyrimidin-5-yl)-1H-pyrrole-2-carbonyl)pyrrolidine-3-carboxamide] came in with an activity at 1 µM of less than 45%. In the series with HBV [3], the EC50 was in the range of 50 to 300 nM.

On to `Cc1ncnc(C)c1-c1ccc(C(=O)N2CC[C@H](C(=O)Nc3cc(F)c(F)c(Cl)c3)C2)[nH]1` [Example 100, (S)—N-(3-chloro-4,5-difluorophenyl)-1-(5-(4,6-dimethylpyrimidin-5-yl)-1H-pyrrole-2-carbonyl)pyrrolidine-3-carboxamide], for which the activity at 1 µM with HBV [1] was less than 45%. Moreover, the CC50 at 6 days in series [2] lay within 10000 to 25000 nM. Besides, the EC50 in the series on HBV [3] is less than 50 nM.

Take `O=C(Nc1ccc(F)c(Cl)c1)[C@H]1CCN(C(=O)c2[nH]c3ccccc3c2Cl)C1` [Example 41, (S)-1-(3-chloro-1H-indole-2-carbonyl)-N-(3-chloro-4-fluoro-phenyl)pyrrolidine-3-carboxamide]: the activity at 1 µM with HBV [1] was less than 45%. The EC50 with HBV [3] lay within 50 to 300 nM.

`Cc1n[nH]c(C)c1-c1ccc(C(=O)N2CC[C@H](C(=O)Nc3ccc(F)c(Cl)c3)[C@@H]2C)[nH]1` [Example 105, (2S,3S)—N-(3-chloro-4-fluorophenyl)-1-(5-(3,5-dimethyl-1H-pyrazol-4-yl)-1H-pyrrole-2-carbonyl)-2-methylpyrrolidine-3-carboxamide] came in with an activity at 1 µM with HBV [1] of less than 45%. Further, the CC50 at 6 days in series [2] is less than 10000 nM. In addition, in the series with HBV [3], the EC50 was less than 50 nM.

`Cc1cc[nH]c(=O)c1-c1ccc(C(=O)N2CC[C@H](C(=O)Nc3ccc(F)c(Cl)c3)[C@@H]2C)[nH]1` [Example 119, (2S,3S)—N-(3-chloro-4-fluorophenyl)-2-methyl-1-(5-(4-methyl-2-oxo-1,2-dihydropyridin-3-yl)-1H-pyrrole-2-carbonyl)pyrrolidine-3-carboxamide] gave an activity at 1 µM in the series with HBV [1] of less than 45%. The CC50 at 6 days in series [2] was greater than 25000 nM. For the same compound, in the series on HBV [3], the EC50 fell in the range of 50 to 300 nM.

`C[C@H]1[C@@H](C(=O)Nc2cc(F)c(F)c(F)c2)CCN1C(=O)c1nc2cccnc2[nH]1` [Example 70, (2S,3S)-1-(3H-imidazo[4,5-b]pyridine-2-carbonyl)-2-methyl-N-(3,4,5-trifluorophenyl)pyrrolidine-3-carboxamide]: in the series with HBV [1], the activity at 1 µM was in the range of 45 to 60%. The cytotoxic concentration (CC50) at 6 days in series [2] was greater than 25000 nM. In the series on HBV [3], the EC50 lay within 50 to 300 nM.

`Cc1ncnc(C)c1-c1ccc2c(Cl)c(C(=O)N3CC[C@H](C(=O)Nc4ccc(F)c(C#N)c4)C3)[nH]c2c1` [Example 135, (S)-1-(3-chloro-6-(4,6-dimethylpyrimidin-5-yl)-1H-indole-2-carbonyl)-N-(3-cyano-4-fluorophenyl)pyrrolidine-3-carboxamide] registered an activity at 1 µM in the series on HBV [1] of less than 45%. Further, the “Size of induced capsids based” value at HBV core protein (Cp149) was “capsid retention times between BAY 41-4109 and NVR 3-778”. The EC50 with HBV [3] lay in the range of 50 to 300 nM.

For the compound `C[C@H]1[C@@H](C(=O)Nc2ccc(F)c(C#N)c2)CCN1C(=O)c1ccc(Cl)[nH]1` [Example 65, (2S,3S)-1-(5-chloro-1H-pyrrole-2-carbonyl)-N-(3-cyano-4-fluorophenyl)-2-methylpyrrolidine-3-carboxamide], the activity at 1 µM in the series with HBV [1] is less than 45%. Also, the CC50 at 6 days in series [2] is greater than 25000 nM. For the same compound, in the series with HBV [3], the EC50 lay within 50 to 300 nM.

`Cc1cc(NC(=O)[C@H]2CCN(C(=O)c3ccc(-c4c(C)cnnc4C)[nH]3)C2)ccc1F` [Example 117, (S)-1-(5-(3,5-dimethylpyridazin-4-yl)-1H-pyrrole-2-carbonyl)-N-(4-fluoro-3-methylphenyl)pyrrolidine-3carboxamide] came in with an activity at 1 µM in the series on HBV [1] of 45 to 60%. The CC50 at 6 days in series [2] is greater than 25000 nM. For the same compound, in the series with HBV [3], the concentration for a half-maximal effect (EC50) was less than 50 nM.
